The test system of one test is S. cerevisiae gal11Δ. Description: Drug sensitivity assay on agar, S. cerevisiae GAL11 deletion strain. The following applies: growth on YPD agar with increasing drug concentration. It is filed as cell-based. As to the method: (§1) Fresh S. cerevisiae colonies were inoculated in 5 ml of YPD or SD selection medium, and grown overnight at 30° C. The cells were diluted to an OD600 of 0.2, and 2 μl were spotted on agar-based solid medium containing an increasing gradient of drugs (for example, ketoconazole, cycloheximide, or 4-NQO) in the agar. The plates were incubated at 30° C. for 2-3 days. Susceptibility of the C. glabrata mutants was tested by spotting serial dilutions of cells onto YPD agar plates supplemented with fluconazole or ketoconazole. The yeast strains were grown overnight at 30° C. in YPD liquid medium. Cells were diluted to an OD600 of 2.0 in PBS, and 4 μl of the cell suspension and tenfold serial dilutions of the cells were spotted onto plates. Growth was assessed after 1 day of incubation at 30° C.

The next test relates to PDR5 gene. Briefly: Xenobiotic-induced transcription of Pdr1p/Pdr3p target genes by quantitative real-time RT-PCR. It counts as cell-based. The following applies: S. cerevisiae, Pdr1p/Pdr3p-dependent, 20 min drug treatment. As to the method: Yeast cultures were grown overnight with agitation in YPD at 30° C. The next day, cells were pelleted and washed twice with sterilized purified water (Millipore). Cells were then resuspended in 1% yeast extract and 2% peptone (YP) to an optical density (OD600) of 0.8, grown for another 16 hr at 30° C., then treated with different drugs for 20 min for quantitative RT-PCR, or 5 hr for β-galactosidase assay.
Total RNA was extracted from 5 ml of yeast culture using the Qiagen RNeasy MiniKit. Two micrograms of total RNA was used to generate cDNA using the First-Strand cDNA Synthesis Kit (GE Healthcare). The cDNA mix was diluted tenfold, and 2 μl was used for real-time quantitative PCR with SYBR Green (Applied Biosystems) on an ABI Prism 7900HT Sequence Detection System (Applied Biosystems).
(In general: Quantitative PCR measures a nucleic acid by following its amplification.)

For the next test, the target named is T1, Myc6-Pdr1p (Saccharomyces cerevisiae, UniProt P12383).
T1 construct: N-terminal Myc-tagged full-length wild-type Pdr1p (Myc6-Pdr1pwt); made in house; host or cells: yeast (S. cerevisiae), immunopurified with anti-Myc 9E10 on Protein A/G beads
Description: Drug-binding and cold competition assay with 3H-ketoconazole. The arrangement: species or system S. cerevisiae. The settings on record: for competition of binding of radiolabelled ketoconazole to Pdr1p by unlabelled xenobiotic: unlabelled xenobiotic at 1,000-fold excess of KET. As to the method:
(§2) For co-immunoprecipitation, yeast cells were transformed with Myc6-Pdr1pwt and Gal11p-Flag2 (or Gal11pAKIX-Flag2). Cells were washed with 1×PBS after overnight culture in YPD medium, and then cultured in YP for another 24 hr. Cells were then treated with different concentrations of ketoconazole and cycloheximide (or ethanol for vehicle controls) for 1 hr. Yeast cell lysates were extracted in immunoprecipitation buffer (50 mM Tris-HCI, pH 8.0, 140 mM NaCl, 0.1 mM EDTA, 10% glycerol, 0.02% NP-40, 1 mM DTT, 0.25 mM PMSF, 1 mM benzamidine, 0.5 mgml^−1 aprotinin and Protease Inhibitor Cocktail (Complete, Roche)), with or without xenobiotics by vortexing in the presence of glass beads. The Flag-tagged proteins were then immunoprecipitated by adding anti-Flag M2 antibody-beads (Sigma) and incubating for 3 hr with mutating at 4 C. After washing five times with 1 ml of 0.25 M KCl IP buffer, bound proteins were eluted with 0.1 mgml^−1 Flag peptide (Sigma). Xenobiotics at the indicated concentrations were present at all steps of the co-immunoprecipitation, including washing. Immunoblotting was performed according to standard protocols. To immunopurify Myc6-Pdr1pwt or HA-Pdr1pwt, yeast whole-cell extract (in immunoprecipitation buffer) was incubated with anti-Myc (9E10) antibody or anti-HA (F-7) antibody, and a 50% mix of Protein A- and G-Sepharose beads (Amersham) at 4° C. for 3 hr. Beads were washed with IP buffer five times, and used for drug-binding experiments as outlined herein.
Xenobiotic-binding experiments were performed essentially as described (Kapinsky & Lasar, 435 Nature 446-51 (2005)), with some modifications as explained herein. Radiolabelled ketoconazole (KET: [^3H]G), specific radioactivity 10 Ci mmol^−1, was purchased from American Radiolabelled Chemicals. Beads with either immunopurified proteins or GST recombinant proteins were incubated with KET ([^3H]G) in drug-binding buffer (10 mM K2HPO4, 10 mM KH2PO4, pH 7.0, 2 mM EDTA, 50 mM NaCl, 1 mM DTT, 0.5 mM CHAPS, 10% glycerol and protease inhibitors) at 4° C. for 3 hr with mixing in a volume of 500 μl. […]

For a further test, the system named is C. glabrata Cggal11AΔ. Briefly: Drug sensitivity growth assay, C. glabrata CgGAL11A deletion strain. The settings on record: growth assays on YPD plates. It counts as cell-based. The method, then:
as §1

A further test deals with C. glabrata. Description: C. elegans liquid killing assay. The settings on record: fluconazole 8 μg/ml; for survival of nematodes infected with wild-type C. glabrata under antifungal treatment: six-day experiment. It is filed as in vivo. The method, then:
The C. glabrata strains and lawns were grown and prepared as described previously. Breger, 3 PloS Pathogens, el8 (2007). The liquid medium killing assays were conducted as detailed in Breger, 2007, with a few changes. After the glp-4;sek-I worms were incubated at 25° C. for 2 days, they were washed off the nematode growth medium plates with M9 and transferred to C. glabrata lawns formed on Brain-Heart Infusion broth (Difco) agar plates. The worms were incubated on the lawns for 4 hr at 25° C., then washed off the plates with M9 buffer and allowed to crawl on unneeded Brain-Heart Infusion broth plates to remove yeast cells from their cuticles. Approximately 70-80 worms were then picked to wells in a six-well microtiter dish that contained 2 ml of liquid medium of 79% M9 buffer, 20% Brain-Heart Infusion broth, 10 μgml^−1 cholesterol in ethanol, and 90 μgml^−1 kanamycin, with the addition of 0.25% DMSO or 8 μgml^−1 fluconazole. The plates were incubated at 25° C. overnight and then examined at 24 hr intervals for survival. […] P values were calculated based on the entire six-day experiment with the log rank and Wilcoxon tests performed by STATA 6 statistical software (Stata, College Station, Tex.).

Another test deals with CgPdr1p. Description: Binding of 3H-ketoconazole to immunopurified CgPdr1p. Set-up: species or system C. glabrata. The settings on record: immunopurified Myc6-CgPdr1p on beads. The method, then:
as §2, with “Immunoblotting was performed according to standard protocols. To immunopurify Myc6-Pdr1pwt or HA-Pdr1pwt, yeast whole-cell extract (in immunoprecipitation buffer) was incubated with anti-Myc (9E10) antibody or anti-HA (F-7) antibody, and a 50% mix of Protein A- and G-Sepharose beads (Amersham) at 4° C. for 3 hr. Beads were washed with IP buffer five times, and used for drug-binding experiments as outlined herein.” left out
Xenobiotic-binding experiments were performed essentially as described (Kapinsky & Lasar, 435 Nature 446-51 (2005)), with some modifications as explained herein. Radiolabelled ketoconazole (KET: [^3H]G), specific radioactivity 10 Ci mmol^−1, was purchased from American Radiolabelled Chemicals. […]

The subject of test [1] is S. cerevisiae wild-type cells. Briefly: High throughput cell viability screen (OD600) with or without ketoconazole. The settings on record: OD600, two-fold dilutions from 30 μg/mL, with ketoconazole. It counts as cell-based. The method, then:
Briefly, S. cerevisiae or C. glabrata wild-type cells are grown to exponential growth phase and added to 384-well plates. Each well contains rich media with either (a) drug of interest or (b) drug of interest with ketoconazole. Serial 2-fold dilutions of compounds are tested to determine concentration-dependent effects upon cell viability. Cells are incubated at 30° C. and optical density (OD600) is measured to determine cell growth. Plates are set up in duplicate and compounds are scored for their ability to inhibit cell growth in the presence or absence of ketoconazole. For S. cerevisiae screening, wild-type inoculum cultures were grown in YPD (1% yeast extract, 2% bacto-peptone, 2% dextrose) at 30° C., 200 rpm overnight. On day 2, these cultures were expanded to log-phase growth in the morning (OD600˜0.500). On day 3, compounds of interest were added to 25 μL of YPD or YPD+10 μM ketoconazole at an initial concentration of 30 μg/mL and set up as 5 two-fold serial dilutions. Log-phase wild-type cultures with an OD600˜0.500 were diluted to an OD600 of 0.005 and added at an equal volume (25 μL) of wild-type cells to wells with compounds +/− ketoconazole. Initial OD600 values were read with a Perkin Elmer EnVision and plates incubated in a moist chamber at 30° C. OD600 was read at 24 hr, 48 hr, 72 hr and 96 hr. […]

The pKd is the Kd on a negative log10 scale, so that one unit is a factor of ten.

SMILES strings stand for the structures. pKd: −log10 of the molar value. “Also recorded” adds a separate entry of the source.

T1 sequence (P12383 whole entry): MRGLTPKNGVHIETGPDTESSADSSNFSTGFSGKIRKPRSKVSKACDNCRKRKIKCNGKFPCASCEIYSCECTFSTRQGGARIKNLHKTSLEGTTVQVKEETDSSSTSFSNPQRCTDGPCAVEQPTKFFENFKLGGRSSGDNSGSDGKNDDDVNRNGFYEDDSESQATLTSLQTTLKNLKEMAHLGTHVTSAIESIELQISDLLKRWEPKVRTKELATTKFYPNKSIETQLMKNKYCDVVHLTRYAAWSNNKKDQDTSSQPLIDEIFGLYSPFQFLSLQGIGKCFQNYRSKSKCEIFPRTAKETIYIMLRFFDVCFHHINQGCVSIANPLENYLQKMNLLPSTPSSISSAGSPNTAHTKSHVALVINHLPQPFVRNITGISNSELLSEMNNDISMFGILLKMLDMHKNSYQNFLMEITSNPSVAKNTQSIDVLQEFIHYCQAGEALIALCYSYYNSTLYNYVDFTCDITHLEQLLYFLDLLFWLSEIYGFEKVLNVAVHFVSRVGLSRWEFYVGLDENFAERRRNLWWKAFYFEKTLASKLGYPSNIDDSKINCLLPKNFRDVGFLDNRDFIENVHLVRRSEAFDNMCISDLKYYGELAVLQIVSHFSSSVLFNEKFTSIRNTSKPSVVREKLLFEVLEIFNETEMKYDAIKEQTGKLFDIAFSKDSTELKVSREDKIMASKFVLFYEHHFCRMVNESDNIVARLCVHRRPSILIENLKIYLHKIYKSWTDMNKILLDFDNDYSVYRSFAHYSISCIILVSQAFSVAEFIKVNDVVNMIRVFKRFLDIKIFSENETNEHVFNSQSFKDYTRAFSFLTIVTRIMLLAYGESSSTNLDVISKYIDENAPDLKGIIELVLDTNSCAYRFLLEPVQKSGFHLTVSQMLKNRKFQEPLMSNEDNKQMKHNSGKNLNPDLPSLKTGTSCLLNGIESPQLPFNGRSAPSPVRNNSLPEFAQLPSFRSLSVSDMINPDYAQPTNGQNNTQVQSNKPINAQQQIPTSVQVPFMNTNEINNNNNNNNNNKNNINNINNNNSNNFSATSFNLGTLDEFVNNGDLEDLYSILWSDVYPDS

`O=[N+]([O-])c1cc[n+]([O-])c2ccccc12` [4-nitroquinoline oxide]: in the test with S. cerevisiae gal11Δ, the “sensitivity of GAL11 deletion strain to toxin/xenobiotic” value (“sensitivity … to toxin/xenobiotic” below) is listed as “striking sensitivity”.

In the case of `C[C@@H]1C[C@@H]([C@H](O)CC2CC(=O)NC(=O)C2)C(=O)[C@@H](C)C1` [cycloheximide], the “induction of expression of drug efflux pump PDR5 and other Pdr1p/Pdr3p target genes” value in the test on PDR5 gene is on record as “induced”. For the same compound, the “competition of binding of radiolabelled ketoconazole to Pdr1p by unlabelled xenobiotic” value on Myc6-Pdr1p was “effectively competed”. The “sensitivity … to toxin/xenobiotic” value in the test with S. cerevisiae gal11Δ was “striking sensitivity”. Besides, the “sensitivity of CgGAL11A deletion strain to drug” value (shortened to “sensitivity … to drug”) in the test on C. glabrata Cggal11AΔ is given as “markedly increased sensitivity”.

For the compound `OC(Cn1cncn1)(Cn1cncn1)c1ccc(F)cc1F` [fluconazole], the “survival of nematodes infected with Cggal11B or Cgmed1 deletion strains in the presence of antifungal” value with C. glabrata (Cggal11B or Cgmed1 deletion strains) was “little difference in survival rates”. Also, the “survival of nematodes infected with Cgpdr1 and Cggal11A deletion strains in the presence of antifungal” value is on record as “significantly increased survival” in the test with C. glabrata and “increased the lifespan of nematodes” with C. glabrata (listed as Fluconazole). In addition, the “survival of nematodes infected with wild-type C. glabrata under antifungal treatment” value in the test with C. glabrata is “completely resistant; also recorded: death of most nematodes within six days”. In addition, the “sensitivity … to drug” value in the test on C. glabrata Cggal11AΔ is listed as “markedly increased sensitivity”.

In the case of `CC(=O)N1CCN(c2ccc(OCC3COC(Cn4ccnc4)(c4ccc(Cl)cc4Cl)O3)cc2)CC1` (stereo not drawn) [ketoconazole], the “induction of expression of drug efflux pump PDR5 and other Pdr1p/Pdr3p target genes” value in the test on PDR5 gene was “induced”. Besides, the “survival of nematodes infected with wild-type C. glabrata under antifungal treatment” value in the test with C. glabrata was “completely resistant”. Further, the pKd on Myc6-Pdr1p (cold ligand competition, 0.1 μM 3H-KET, Myc6-Pdr1p, read-out: dissociation constant (KD) of binding to immunopurified Pdr1p) is around 4.41. At Myc6-Pdr1p, the “competition of binding of radiolabelled ketoconazole to Pdr1p by unlabelled xenobiotic” value is “effectively competed”. Moreover, the “sensitivity … to toxin/xenobiotic” value in the test on S. cerevisiae gal11Δ is “striking sensitivity”. The “direct binding of radiolabeled compound to CgPdr1p” value in the test with CgPdr1p is on record as “binds directly”. Also, the “sensitivity … to drug” value with C. glabrata Cggal11AΔ is given as “markedly increased sensitivity”.

With `CN(C/C=C/C#CC(C)(C)C)Cc1cccc2ccccc12` [terbinafine], the “growth inhibition in the presence of ketoconazole” value in test [1] was “eliminate cell growth”.

Values taken from patent publication US8557746B2, “High throughput screens for small-molecule inhibitors of the nuclear receptor-like pathway regulating multidrug resistance in fungi” (The General Hospital Corporation, priority 2009, dated 2013).
